Measurements published in patent publication US8163909B2, “Substituted hydroxyethyl amine compounds as beta-secretase modulators and methods of use” (Amgen Inc., priority 2007, dated 2012).
pIC50: −log10 of the molar value. Where two headings read alike, the source gives them in different places.

Columns and labels:
[1] = biological target: Beta Secretase enzyme (BACE) (Homo sapiens, UniProt P56817); assay: In vitro enzymatic BACE FRET (fluorescence resonance energy transfer) assay; assay type: biochemical; conditions: for IC50: IC50's in uM;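 on all read-outs here: fluorescence read after 1 h with 50 nM quenched peptide substrate spanning the BACE cleavage site, in pH 4.2 acetate buffer containing 10% DMSO and nonionic detergent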
[2] = Microsomal stability assay, human liver microsomes; conditions: human liver microsomal data;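 further: pooled human liver microsomes at 0.25 mg/mL with 1 µM compound and NADPH at 37 °C, pH 7.4, for 30 min, unchanged parent quantified by LC-MS/MS against the 0 min sample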
[3] = Microsomal stability assay, rat liver microsomes; conditions: rat liver microsomal data;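 further: rat liver microsomes (0.25 mg/mL) with about 1 µM compound plus 1 mM NADPH, pH 7.4, 37 °C for 30 min, parent left measured by LC-MS/MS against 0 min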
[4] = test system: Aβ40 in conditioned medium of cells stably expressing Amyloid Precursor Protein (APP); assay: In vitro BACE cell-based assay (Aβ40 in conditioned medium, sandwich ELISA); conditions: for IC50: IC50's in uM;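 on all read-outs here: compounds added as a dilution series, secreted peptide quantified by europium time-resolved fluorescence readout, potency fitted from percent of control versus compound concentration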
[5] = biological target: CYP2D6 (Homo sapiens, UniProt P10635); assay: CYP2D6 inhibition assay (bufuralol, pooled human liver microsomes); conditions: 2D6 IC50, CYP enzyme inhibition
[6] = Table 2, read-out: BACE1 FRET assay
[7] = Homo sapiens, HEK293, Table 2, HEK cells, read-out: HEK cell assay
[8] = BACE enzyme assay, read-out: BACE1 FRET assay
[9] = Homo sapiens, HEK293, HEK cells, read-out: HEK cell assay
[10] = read-out: BACE1 FRET assay (IC50)
[11] = Homo sapiens, HEK293, HEK cells, read-out: HEK cell assay (IC50)
[12] = BACE enzyme assay IC50, read-out: BACE1 FRET assay
[13] = Homo sapiens, HEK293, HEK cell-based assay IC50, read-out: HEK cell assay
[14] = Homo sapiens, HEK293, HEK cell-based assay, read-out: HEK cell assay
[15] = Homo sapiens, HEK293, cell-based assay, HEK cells, read-out: HEK cell assay
[16] = BACE enzyme FRET assay, read-out: BACE1 FRET assay (IC50)
[17] = HEK cells, cell-based assay, read-out: HEK cell assay (IC50)
[18] = BACE enzyme assay, read-out: BACE1 FRET assay (IC50)

Chain of Beta Secretase enzyme (BACE) (P56817 46-501): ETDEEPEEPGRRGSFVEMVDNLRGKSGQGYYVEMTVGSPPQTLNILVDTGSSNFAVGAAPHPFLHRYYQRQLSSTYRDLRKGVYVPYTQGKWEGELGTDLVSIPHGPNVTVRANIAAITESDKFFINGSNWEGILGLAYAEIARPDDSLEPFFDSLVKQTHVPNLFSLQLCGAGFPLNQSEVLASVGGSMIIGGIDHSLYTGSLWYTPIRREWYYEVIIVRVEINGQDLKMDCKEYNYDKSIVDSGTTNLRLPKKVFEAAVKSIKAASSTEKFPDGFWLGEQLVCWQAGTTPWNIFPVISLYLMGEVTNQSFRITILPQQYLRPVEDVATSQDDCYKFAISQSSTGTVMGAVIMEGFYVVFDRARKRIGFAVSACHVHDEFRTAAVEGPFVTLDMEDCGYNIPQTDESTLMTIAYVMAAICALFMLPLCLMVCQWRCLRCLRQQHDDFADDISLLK
Chain of CYP2D6 (P10635 whole entry): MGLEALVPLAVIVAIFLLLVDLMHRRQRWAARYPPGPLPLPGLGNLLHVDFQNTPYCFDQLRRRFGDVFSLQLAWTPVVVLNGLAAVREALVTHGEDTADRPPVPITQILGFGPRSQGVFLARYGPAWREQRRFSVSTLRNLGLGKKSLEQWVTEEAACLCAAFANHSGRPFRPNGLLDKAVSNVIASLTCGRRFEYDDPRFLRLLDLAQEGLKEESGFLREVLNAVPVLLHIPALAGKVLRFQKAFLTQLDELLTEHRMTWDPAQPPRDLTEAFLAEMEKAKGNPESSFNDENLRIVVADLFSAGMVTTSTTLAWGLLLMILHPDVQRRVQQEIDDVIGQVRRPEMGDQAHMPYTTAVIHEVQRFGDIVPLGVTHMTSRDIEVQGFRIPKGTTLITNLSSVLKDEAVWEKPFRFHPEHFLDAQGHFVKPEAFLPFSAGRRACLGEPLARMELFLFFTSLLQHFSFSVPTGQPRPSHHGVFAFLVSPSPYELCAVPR

CO[C@@H](C)C(=O)N[C@@H](Cc1ccc2c(c1)OCO2)[C@H](O)CN[C@H]1CC2(CCC2)Oc2c1cc(CC(C)(C)C)nc2N(C)C [compound 443]
pIC50 [1, 6]: 7.19 | HLM [2]: 190 µL/min/mg | RLM [3]: 232 µL/min/mg | pIC50 [4, 7]: 6.76

CC(F)C(=O)N[C@@H](Cc1ccc2c(c1)OCO2)[C@H](O)CN[C@H]1CC2(CCC2)Oc2ncc(CC(C)(C)C)cc21 (stereo partly drawn) [compound 452, N-((1S,2R)-1-(1,3-benzodioxol-5-ylmethyl)-3-(((4′S)-6′-(2,2-dimethylpropyl)-3′,4′-dihydrospiro[cyclobutane-1,2′-pyrano[2,3-b]pyridin]-4′-yl)amino)-2-hydroxypropyl)-2-fluoropropanamide]
pIC50 [1, 6]: 7.80 | pIC50 [4, 7]: 7.41

CC(C)(C)Cc1cnc2c(c1)[C@@H](NC[C@@H](O)[C@H](Cc1ccc3c(c1)OCO3)NC(=O)[C@@H]1CCCO1)CC1(CCC1)O2 [compound 453]
pIC50 [1, 6]: 7.66 | pIC50 [4, 7]: 7.43

CC(C)(C)Cc1cnc2c(c1)[C@@H](NC[C@@H](O)[C@H](Cc1ccc3c(c1)OCO3)NC(=O)[C@H]1CCCO1)CC1(CCC1)O2 [compound 454, (2R)-N-((1S,2R)-1-(1,3-benzodioxol-5-ylmethyl)-3-(((4′S)-6′-(2,2-dimethylpropyl)-3′,4′-dihydrospiro[cyclobutane-1,2′-pyrano[2,3-b]pyridin]-4′-yl)amino)-2-hydroxypropyl)tetrahydro-2-furancarboxamide]
pIC50 [1, 6]: 7.70 | pIC50 [4, 7]: 7.57

COCC(=O)N[C@@H](Cc1cccc(F)c1)[C@H](O)CN[C@H]1CC2(CCC2)Oc2c(-c3ccncc3)cc(CC(C)(C)F)cc21 [compound 530]
pIC50 [1, 8]: 7.82 | pIC50 [4, 9]: 8.00

COCC(=O)N[C@@H](Cc1ccc(F)cc1)[C@H](O)CN[C@H]1CC2(CCC2)Oc2c(-c3ccncc3)cc(CC(C)(C)F)cc21 [compound 538]
pIC50 [1, 8]: 7.33 | pIC50 [4, 9]: 7.37

COCC(=O)N[C@@H](Cc1cccc(F)c1)[C@H](O)CN[C@H]1CC2(CCC2)Oc2c1cc(Cl)cc2-n1ccnc1 [compound 553]
pIC50 [1, 8]: 6.84 | HLM [2]: 47 µL/min/mg | RLM [3]: 86 µL/min/mg

COCC(=O)N[C@@H](Cc1ccc2c(c1)OCO2)[C@H](O)CN[C@H]1CC2(CCC2)Oc2ccc(C[C@@H](C)F)cc21 [compound 558]
pIC50 [1, 8]: 6.60 | HLM [2]: 167 µL/min/mg | RLM [3]: 362 µL/min/mg | pIC50 [4, 9]: 6.47

CO[C@H](C)C(=O)N[C@@H](Cc1cccc(F)c1)[C@H](O)CN[C@H]1CC2(CCC2)Oc2c(-c3ccncc3)cc(CC(C)(C)F)cc21 [compound 564]
pIC50 [1, 8]: 7.49 | pIC50 [4, 9]: 7.54

CO[C@H](C)C(=O)N[C@@H](Cc1ccc(F)cc1)[C@H](O)CN[C@H]1CC2(CCC2)Oc2c(-c3ccncc3)cc(CC(C)(C)F)cc21 [compound 577]
pIC50 [1, 10]: 6.94 | pIC50 [4, 11]: 7.24

COCC(=O)N[C@@H](Cc1cc(F)cc(F)c1)[C@H](O)CN[C@H]1CC2(CCC2)Oc2c(-c3ccncc3)cc(CC(C)(C)F)cc21 [compound 579]
pIC50 [1, 10]: 7.85 | pIC50 [4, 11]: 8.30

CC(C)Cc1cnc2c(c1)[C@@H](NC[C@@H](O)[C@H](Cc1ccc3c(c1)OCO3)NC(=O)[C@H](C)F)CC1(CCC1)O2 [compound 601]
pIC50 [1, 10]: 7.36 | pIC50 [4, 11]: 7.21

CCOCC(=O)N[C@@H](Cc1ccc(F)cc1)[C@H](O)CN[C@H]1CC2(CCC2)Oc2ncc(CC(C)(C)C)cc21 [compound 655]
pIC50 [1, 10]: 7.89 | pIC50 [4, 11]: 7.37

CCOCC(=O)N[C@@H](Cc1ccc2c(c1)OCO2)[C@H](O)CN[C@H]1CC2(CCC2)Oc2ncc(CC(C)C)cc21 [compound 720]
pIC50 [1, 12]: 7.24 | pIC50 [4, 13]: 6.87

CC(=O)N[C@@H](Cc1cc(F)cc(F)c1)[C@H](O)CN[C@H]1CC(C)(C)N2CCOc3cc(CC(C)(C)C)cc1c32 [compound 725]
pIC50 [1, 12]: 7.23 | pIC50 [4, 13]: 6.75

CCc1cnc2c(c1)[C@@H](NC[C@@H](O)[C@H](Cc1cc(F)cc(-c3nccs3)c1)NC(=O)COC)CC1(CCC1)O2 [compound 728]
pIC50 [1, 12]: 7.52 | pIC50 [4, 13]: 6.97

COCC(=O)N[C@@H](Cc1cc(F)cc(-c2nccn2C)c1)[C@H](O)CN[C@H]1CC2(CCC2)Oc2ncc(CC(C)(C)C)cc21 [compound 740, N-((1S,2R)-3-(((4′S)-6′-(2,2-dimethylpropyl)-3′,4′-dihydrospiro[cyclobutane-1,2′-pyrano[2,3-b]pyridin]-4′-yl)amino)-1-(3-fluoro-5-(1-methyl-1H-imidazol-2-yl)benzyl)-2-hydroxypropyl)-2-methoxyacetamide]
pIC50 [1, 12]: 7.29 | pIC50 [4, 13]: 8.22

CC#Cc1cccc(C[C@H](NC(=O)[C@@H](C)OC)[C@H](O)CN[C@H]2CC3(CCC3)Oc3ncc(CC(C)C)cc32)c1 [compound 803]
IC50 [1, 8]: 0.022 µM | IC50 [4, 14]: 0.132 µM

CO[C@H](C)C(=O)N[C@@H](Cc1cc(F)cc(Cl)c1)[C@H](O)CN[C@H]1CC2(CCC2)Oc2ccc(CC(C)C)cc21 [compound 805]
IC50 [1, 8]: 0.003 µM | IC50 [4, 14]: 0.07 µM

COCC(=O)N[C@@H](Cc1cccc(-c2nccs2)c1)[C@H](O)CN[C@H]1CC2(CCC2)Oc2cnc(CC(C)(C)C)cc21 [compound 807]
IC50 [1, 8]: 0.019 µM | IC50 [4, 14]: 0.054 µM

CCC(=O)N[C@@H](Cc1ccc2c(c1)OCO2)[C@H](O)CN[C@H]1CC2(CCC2)Oc2ncc(CC(C)(C)C)cc21 [compound 828]
IC50 [1, 8]: 0.012 µM | IC50 [4, 14]: 0.014 µM

C=Cc1cccc(C[C@H](NC(=O)COC)[C@H](O)CN[C@H]2CC3(CCC3)Oc3ncc(CC(C)C)cc32)c1 [compound 832]
IC50 [1, 8]: 0.007 µM | IC50 [4, 14]: 0.038 µM

C#CCCC(=O)N[C@@H](Cc1ccc2c(c1)OCO2)[C@H](O)CN[C@H]1CC2(CCC2)Oc2ncc(CC(C)(C)C)cc21 [compound 843]
IC50 [1, 8]: 0.044 µM | IC50 [4, 14]: 0.065 µM

C#CCCC(=O)N[C@@H](Cc1cccc(F)c1)[C@H](O)CN[C@H]1CC2(CCC2)Oc2ncc(CC(C)(C)C)cc21 [compound 859]
IC50 [1, 8]: 0.004 µM | IC50 [4, 15]: 0.027 µM

COCC(=O)N[C@@H](Cc1cccc(C(N)=O)c1)[C@H](O)CN[C@H]1CC2(CCC2)Oc2ncc(CC(C)(C)F)cc21 [compound 863]
IC50 [1, 8]: 0.013 µM | IC50 [4, 15]: 0.033 µM

COC(OC)C(=O)N[C@@H](Cc1cccc(C(N)=O)c1)[C@H](O)CN[C@H]1CC2(CCC2)Oc2ncc(CC(C)(C)F)cc21 [compound 864]
IC50 [1, 8]: 0.04 µM | IC50 [4, 15]: 0.117 µM

CC(C)C(=O)N[C@@H](Cc1ccc2c(c1)OCO2)[C@H](O)CN[C@H]1CC2(CCC2)Oc2ncc(CC(C)(C)C)cc21 [compound 881]
IC50 [1, 8]: 0.144 µM | IC50 [4, 15]: 0.813 µM

C#Cc1cc(C[C@H](NC(=O)COC)[C@H](O)CN[C@H]2CC3(CCC3)Oc3ncc(CC(C)(C)C)cc32)cc(-c2nccs2)c1 [compound 889]
IC50 [1, 8]: 0.653 µM | IC50 [4, 15]: 0.989 µM

CC#Cc1cccc(C[C@H](NC(=O)[C@@H](C)OC)[C@H](O)CN[C@H]2CC3(CCC3)Oc3ncc(CC(C)(C)C)cc32)c1 [compound 895]
IC50 [1, 8]: 0.016 µM | IC50 [4, 15]: 0.017 µM

C#Cc1cccc(C[C@H](NC(=O)[C@@H]2CCCO2)[C@H](O)CN[C@H]2CC3(CCC3)Oc3ncc(CC(C)(C)C)cc32)c1 [compound 897]
IC50 [1, 8]: 0.005 µM | RLM [3]: 55 µL/min/mg | IC50 [4, 15]: 0.007 µM | pIC50 [5]: 5.44

(2R)—N-((1S,2R)-1-((4-fluorophenyl)methyl)-2-hydroxy-3-(((4′S)-6′-(3,3,3-trifluoropropyl)-3′,4′-dihydrospiro[cyclobutane-1,2′-pyrano[2,3-b]pyridin]-4′-yl)amino)propyl)-2-(methyloxy)propanamide ′(2S)—N-((1S,2R)-1-((4-fluorophenyl)methyl)-2-hydroxy-3-(((4′S)-6′-(3,3,3-trifluoropropyl)-3′,4′-dihydrospiro[cyclobutane-1,2′-pyrano[2,3-b]pyridin]-4′-yl)amino)propyl)-2-(methyloxy)propanamide [compound 192]
pIC50 [1, 16]: 5.99 | pIC50 [4, 17]: 5.69

N-((1S,2R)-1-(1,3-benzodioxol-5-ylmethyl)-3-(((1r,3R,4′S)-6′-(2,2-dimethylpropyl)-3-hydroxy-3′,4′-dihydrospiro[cyclobutane-1,2′-pyrano[2,3-c]pyridin]-4′-yl)amino)-2-hydroxypropyl)acetamide N-((1S,2R)-1-(1,3-benzodioxol-5-ylmethyl)-3-(((1s,3S,4′S)-6′-(2,2-dimethylpropyl)-3-hydroxy-3′,4′-dihydrospiro[cyclobutane-1,2′-pyrano[2,3-c]pyridin]-4′-yl)amino)-2-hydroxypropyl)acetamide [compound 264]
pIC50 [1, 16]: 7.37 | pIC50 [4, 17]: 7.16

N-((1S,2R)-1-(4-thiazolylmethyl)-3-(((5′S)-3′-(2,2-dimethylpropyl)-5′,8′-dihydro-6′H-spiro[cyclobutane-1,7′-quinolin]-5′-yl)amino)-2-hydroxypropyl)-2-(methyloxy)acetamide [compound 176]
pIC50 [1, 18]: 7.98 | pIC50 [4, 17]: 7.77

N-((1S,2R)-1-((3-cyanophenyl)methyl)-3-(((4′S)-6′-(2,2-dimethylpropyl)-3′,4′-dihydrospiro[cyclobutane-1,2′-pyrano[2,3-b]pyridin]-4′-yl)amino)-2-hydroxypropyl)-1-cyclobutyl-4,4-dimethyl-5-oxo-3-pyrrolidinecarboxamide [compound 60]
pIC50 [1, 18]: 7.68 | pIC50 [4, 17]: 7.20
